Measurements from patent publication US20160355782A1, “METHOD FOR ENHANCING DIFFERENTIATION OF DOPAMINERGIC NEURONS” (Buddhist Tzu Chi Medical Foundation, priority 2015, published 2016).

How the values were obtained:
[1] = tested on: human DA neuroblastoma SH-SY5Y cells; assay: Western blot of TH protein in SH-SY5Y cells; format: cell-based; conditions: UCN vs control medium
Protocol: Human DA neuroblastoma SH-SY5Y cells were grown in Minimal Essential Medium (MEM)/F12 medium containing 10% FBS, 2 mM L-glutamine, 100 μM nonessential amino acids, 100 U/mL penicillin, and 100 μg/mL streptomycin. Cells were incubated at 37° C. under saturating humidity in 5% CO2/95% air.
For Western blot analysis, VM precursor cells were lysed in M-PER® Mammalian Protein Extraction Reagent (Pierce). Protein concentration was determined by Bradford assay (Bio-Rad, Hercules, Calif.). 30˜50 μg of protein sample was separated on 10˜12% sodium dodecyl sulphate-polyacrylamide gel (SDS-PAGE) and transferred to immobilon polyvinylidene difluoride (PVDF) membranes (Merck Millipore). The membranes were incubated in Tris-buffered saline (TBST, 0.1 M Tris/HCl, pH 7.4, 0.9% NaCl, 0.1% Tween 20) supplemented with 5% non-fat dry milk for 1 h to block nonspecific binding. […] The antigen-antibody complex was detected by using an ECL chemi-luminescence detection system (PerkinElmer, Boston, Mass.). The intensity of the bands was quantified with a GS-800 calibrated densitometer (Bio-Rad), and calculated as the optical density X area of bands.

[2] = tested on: VM of E16.5 rat embryos; assay: In vivo DA neuron differentiation in VM of rat embryos (immuno-histochemistry)
Protocol: The pregnant rats on day 12.5 of gestation were intra-peritoneally injected with saline or 10 μg/kg UCN every 24 hours for 3 days (FIGS. 7H & 7I) or 4 days (FIGS. 7A, 7B, & 7E-7G) before sacrifice. FIG. 7A is an image of immuno-staining against TH of rat E16.5 mesencephalon. FIG. 7B is cell counting analysis of TH^+ cells in the VM of E16.5 saline and UCN-treated embryos (**p<0.01 compared with saline group). […] FIGS. 7H and 7I show histone H3 acetylation (H) and Nurr1 recruitments (I) at the TH promoter by ChIP analyses which were performed with chromatin prepared from E15.5 VM tissue of saline or UCN-treated embryos (*p<0.05; **p<0.01 compared with saline groups). Con: control medium.
For immuno-histochemistry, rat embryos were perfused with 4% paraformaldehyde, cryopreserved with 30% sucrose in PBS overnight, embedded in Tissue Tek OCT compound (Sakura Finetek, Torrance, Calif.), and then frozen at −80° C. For Nurr1 staining, the embryos were perfused with 4% paraformaldehyde/0.15% picric acid followed by soaking in the same solution overnight at 4° C. Coronal sections (16 μm thick) were blocked with 2% FBS and 3% normal goat or normal donkey serum for 1 h at room temperature, and subsequently incubated with primary antibodies overnight at room temperature. Primary antibodies were rabbit anti-Lmx1b (1:3000), guinea-pig anti-Lmx1b (1:1500), rabbit anti-UCN (1:200), goat anti-CRHR1 (1:100), rabbit anti-CRHR2 (1:250), mouse anti-Nurr1 (1:100), rabbit anti-Nurr1 (1:100), and mouse anti-TH (1:2000). After washing with PBS, secondary antibodies conjugated to the FITC or rhodamine were applied to sections for 1 h. Sections were examined with fluorescent microscope or confocal microscope. Quantitative cell counts were performed in every third section through the entire A9-A10 populations in 5-10 embryos per condition.

Urocortin [UCN]
TH protein levels [1]: induced the increases | proportion of TH+/Nurr1+ cells in the VM ([2]; UCN treated vs saline-treated embryos, E16.5): significant proportion of the Nurr1+ cells differentiate into TH+ neurons | number of ventral mesencephalic TH+ cells ([2]; pregnant rats, 10 μg/kg UCN i.p. every 24 hours for 4 days, E16.5 embryos): increased number | Nurr1+ cell numbers in the VM ([2]; saline vs UCN-treated embryos, E16.5): no significant difference
